Source: patent US6074845A (priority 1999, dated 2000)
Ends that are not written are not given here.

Legend:
[1] = test system: insulin-stimulated glycogen synthesis; conditions: activation of sensory nerves; cited from earlier work
[2] = test system: ATP-sensitive potassium channel; conditions: rabbit mesenteric resistance arteries and rat basilar artery; cited from earlier work
[3] = target: T1, BECRLR (bovine calcitonin receptor-like receptor) (Bos taurus, UniProt A6QP74); test: Competition binding, displacement of [125I] rADM from BECRLR membranes; conditions: BE-CRLR membranes; for IC50: [125I] rADM
T1 construct: amplify the open reading frame of the novel bovine CRLR cDNA; expressed in transfected cells; also transient transfection
Method: (§1) Cells from BECRLR-293 were scraped into ice-cold PBS and centrifuged for 10 min at 1000× g at 4° C. The pellet was resuspended in 10 mM Tris-HCl, pH 7.4, 10 mM Na-EDTA and homogenized using a Dounce ground glass homogenizer. The homogenate was centrifuged for 20 min at 12,000× g at 4° C. and the resultant membrane pellet was resuspended in 50 mM Tris-HCl, pH 7.4, 10 mM MgCl2 and recentrifuged. The final pellet was resuspended in 50 mM Tris-HCl, pH 7.4, 10 mM MgCl2 and assayed immediately.
(§2) Saturation binding experiments were carried out using membranes prepared from BECRLR-293 cells pretreated in the absence or presence of ADM. The incubation mixture contained various concentrations of [^125 I] ADM (5 to 120 pM) and 40-60 μg of membrane protein in a final volume of 500 ul. Nonspecific binding was determined in the presence of 1 μM r ADM. After incubating for 30 min at 25° C., the reaction mixture was rapidly diluted with cold 0.9% NaCl and bound and free ligands were separated by filtration on glass fiber filters.
(§3) [^125 I] […] The specificity of [^125 I] rADM binding to BE-CRLR membranes was investigated by analyzing the displacement of this radioligand binding by ADM and related peptides.

[4] = target: T1, BECRLR (bovine calcitonin receptor-like receptor); test: Inhibition of ADM-activated adenylyl cyclase activity (antagonism) in BECRLR-293 membranes; format: biochemical; conditions: BECRLR #8
Method: as §1, §3

[5] = target: T1, BECRLR (bovine calcitonin receptor-like receptor); test: Adenylyl cyclase activity (activation) in BECRLR-expressing HEK293 cells/membranes; format: biochemical; design: adenylyl cyclase activity stimulation over basal: dose or concentration left out as unconfirmed; conditions: for additive effect between CGRP and ADM on adenylyl cyclase: CGRP combined with ADM, BECRLR #8; for adenylyl cyclase activity stimulation over basal: HEK293 cells transiently transfected; for EC50 / activation of adenylyl cyclase activity over basal: stable clone BECRLR #8; for activation of adenylyl cyclase activity over basal: concentration-dependent
From the text: A bovine endothelial cell cDNA library was constructed using the k-Zap cDNA synthesis kit (Stratagene, La Jolla, Calif.) following the standard protocol. The human CGRP receptor c-DNA-coding sequence was used as a probe for the isolation of CRLR clones from an endothelial cell library. The probe was radiolabled with [α^32 P] ATP by the random priming method and used to screen approximately 1×10^6 plaque-forming units of the endothelial CRLR cDNA library. Nylon filters (Hybond ) containing plaque lifts were hybridized at 42° in 5× SSC (SSC is 150 mM NaCl and 15 mM sodium citrate), 5× Denhardt's solution, 0.1% SDS and 20% formamide followed by autography. Hybridizing clones (8) were plaque purified, and the pBluescript-containing insert was rescued from the purified×phage by in vivo excision using the Exassist/Solar system (Stratagene) and was sequenced in both strands by the dideoxynucleotide chain termination reaction. Two oligonucleotide primers were designed to amplify the open reading frame of the novel bovine CRLR cDNA. PCR amplification was carried out. A recombinant of the novel bovine CRLR was produced by transfection in HEK-293 cells. Transfection was achieved by LipofectAMINE procedure (Life Technologies, Gaithersburg, Md.). Stable cell lines expressing this receptor were selected with G418 and screened for CGRP and ADM-dependent activation of adenylyl cyclase.
as §1
(§4) Membrane-bound adenylyl cyclase activity was determined. Membranes [40-60 ug protein] were incubated in triplicate tubes in buffer containing 50 mM Tris-HCl, pH 7.4, 10 mM MgCl2, 1.2 mM ATP, 1.0 μCi [α^32P]ATP, 0.1 mM cAMP, 2.8 mM phosphoenolpyruvate and 5.2 μg/ml myokinase in a final volume of 100 μl for 20 min at 30° C. The reactions were stopped with 1 ml of a solution containing 0.28 mM cAMP, 0.33 mM ATP and 22,000 dpm of [^3 H]cAMP. [^32 P]cAMP was separated using sequential chromatography as the rate of conversion of [(α^32 P]ATP to [^32 P]cAMP on Dowex and alumina columns (33). Adenylyl cyclase activities were determined in the absence (basal) or presence of various concentrations of rat ADM or hαCGRP (1 pM to 1 μM). The effect of ADM (22-52), ADM (26-52) and hαCGRP(8-37), on ADM-mediatedactivation of adenylyl cyclase was also determined.
(§5) HEK293 cells transiently transfected with this clone responded to CGRP and ADM […] by stimulating adenylyl cyclase activity (60-80% over basal). This clone has been stably expressed in HEK293 cells using the LipofectAMINE procedure and analyzed for CGRP and ADM-mediated adenylyl cyclase activity. One of the positive clones (BECRLR #8) was fully characterized. […] To investigate further the functional results described in this study, a binding study using [^125 I]rADM and [^125 I]CGRP was performed to identify the presence of binding sites for both peptides in BE-CRLR (#8) cell membranes. [^125 I] CGRP binding was very little and the affinity or number of binding sites was difficult to determine. […] The specificity of [^125 I] rADM binding to BE-CRLR membranes was investigated by analyzing the displacement of this radioligand binding by ADM and related peptides. Human and rat ADM displaced [^125 I] rADM binding with high affinity (IC50 values 2-4 nM).

[6] = test system: insulin's effects on glucose metabolism; conditions: cited from earlier work
[7] = test system: CRLR coexpressed with RAMP 1; conditions: CRLR with RAMP 1; cited from earlier work
[8] = test system: vector transfected HEK293 cell membranes; test: Adenylyl cyclase activity in vector transfected HEK293 cell membranes (control); format: biochemical, human
Method: as §4
HEK293 cells transiently transfected with this clone responded to CGRP and ADM […] by stimulating adenylyl cyclase activity (60-80% over basal). This clone has been stably expressed in HEK293 cells using the LipofectAMINE procedure and analyzed for CGRP and ADM-mediated adenylyl cyclase activity. One of the positive clones (BECRLR #8) was fully characterized. […]

[9] = infusion into humans and a variety of other species; cited from earlier work
rat tissues = conditions: [125I] rat ADM; cited from earlier work
[10] = target: T1, BECRLR (bovine calcitonin receptor-like receptor); test: Saturation / specific radioligand binding to BECRLR-293 membranes
Method: as §1
as §2, with “filters. In competition binding studies, the membranes were incubated with increasing concentrations of r ADM or CGRP (1 pM-1 uM) and 150 pM of [^125 I] r ADM for 30 min. at 25° C.” for “filters.”
as §5, with “Human and rat ADM displaced [^125 I] rADM binding with high affinity (IC50 values 2-4 nM).” left out

[11] = test system: CRLR co-expressed with RAMP2; conditions: cited from earlier work
[12] = injected intravenously into rats; cited from earlier work
[13] = test system: rat vascular SMC and cardiomyocytes; conditions: cited from earlier work
[14] = test system: vascular SMC, and bovine EC; conditions: cited from earlier work
NO-cGMP system = conditions: kidney, vascular EC, rabbit ventricular myocytes; cited from earlier work
[15] = test system: insulin secretion and blood glucose metabolism; conditions: cited from earlier work

T1 sequence (A6QP74 23-462): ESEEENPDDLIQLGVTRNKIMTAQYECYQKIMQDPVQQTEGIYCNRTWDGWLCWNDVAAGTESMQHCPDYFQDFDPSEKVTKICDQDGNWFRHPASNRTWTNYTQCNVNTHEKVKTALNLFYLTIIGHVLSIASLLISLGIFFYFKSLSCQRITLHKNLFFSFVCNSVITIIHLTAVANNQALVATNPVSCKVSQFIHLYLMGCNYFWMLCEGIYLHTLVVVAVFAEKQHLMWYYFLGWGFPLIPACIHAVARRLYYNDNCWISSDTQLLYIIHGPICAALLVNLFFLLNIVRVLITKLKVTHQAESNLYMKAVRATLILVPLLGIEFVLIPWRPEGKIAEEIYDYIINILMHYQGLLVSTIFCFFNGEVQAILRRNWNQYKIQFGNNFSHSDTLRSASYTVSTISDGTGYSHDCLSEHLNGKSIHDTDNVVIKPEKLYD
T1 sequence (O60895 43-175 partner): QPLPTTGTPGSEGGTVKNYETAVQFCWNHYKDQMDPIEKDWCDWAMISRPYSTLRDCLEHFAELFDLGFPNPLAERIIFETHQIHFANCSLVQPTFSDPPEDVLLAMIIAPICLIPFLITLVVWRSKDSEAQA

Compound: COc1cc(CNC(=O)CCCC/C=C/C(C)C)ccc1O [capsaicin]
- insulin-stimulated glycogen synthesis [1]: inhibits insulin-stimulated glycogen synthesis

Compound: COc1ccc(Cl)cc1C(=O)NCCc1ccc(S(=O)(=O)NC(=O)NC2CCCCC2)cc1 [glibenclamide]
- inhibition of CGRP actions [2]: CGRP actions are inhibited by glibenclamide

Compound: C=C(C)[C@]12C[C@@H](C)[C@@]34O[C@](Cc5ccccc5)(O[C@@H]1[C@@H]3C=C(COC(=O)Cc1ccc(O)c(OC)c1)C[C@]1(O)C(=O)C(C)=C[C@@H]41)O2 [resiniferatoxin]
- insulin-stimulated glycogen synthesis [1]: inhibits insulin-stimulated glycogen synthesis

Compound: ADM(22-52): ADM receptor antagonist, fragment 22-52 of adrenomedullin
- displacement potency relative to ADM (fold less potent than ADM) ([3]; [125I] rADM displacement): approximately 15 fold
- IC50 [4]: 110 nM

Compound: ADM(26-52): ADM receptor antagonist, fragment 26-52 of adrenomedullin (LAHQIYQFTDKDKDNVAPRSKISPQGY; ends and bridges not checked; UniProt P35318 120-146, looked up, fragment)
- IC50 [4]: > 10000 nM

Compound: Calcitonin gene-related peptide [CGRP]
- additive effect between CGRP and ADM on adenylyl cyclase [5]: no additive effect
- adenylyl cyclase activity stimulation over basal [5]: 60-80 % over basal
- EC50 [5]: 2.8 nM
- activation of adenylyl cyclase activity over basal [5]: ~ 300 % over basal
- glucose infusion rate needed to maintain plasma euglycemia ([6]; glucose clamp in rats, constant insulin infusion rate): rapid and sustained reduction in the glucose infusion rate
- insulin inhibition of hepatic glucose production ([6]; rat, in vivo): effective in blocking insulin inhibition of hepatic glucose production
- response of expressed receptor [7]: responds to CGRP
- displacement of [125I] rADM binding, potency in words ([3]; [125I] rADM displacement): less potent
- activation of adenylyl cyclase in vector transfected membranes [8]: did not respond
- vasodilation, blood flow, blood pressure, heart rate [9]: vasodilation, increased regional blood flow, hypotension and tachycardia

Compound: Human adrenomedullin [Human ADM]
- IC50 [3]: 2 to 4 nM

Compound: [^125 I]rADM: radioiodinated rat adrenomedullin, radioligand (YRQSMNQGSRSTGCRFGTCTMQKLAHQIYQFTDKDKDGMAPRNKISPQGY; ends and bridges not checked; also: radioiodinated (125I), position not given here; UniProt P43145 94-143, looked up)
- density of ADM binding sites among rat tissues (rat tissues): lung had the highest density of ADM binding sites
- Kd ([10]; Scatchard transformation, single class of high affinity binding site, read-out: dissociation constant (Kd)): 0.25 nM
- specific binding as percent of total binding ([10]; [125I]rADM, BE-CRLR (#8) cell membranes): 80-90 % of the total binding

Compound: adrenomedullin (YRQSMNQGSRSTGCRFGTCTMQKLAHQIYQFTDKDKDGMAPRNKISPQGY; ends and bridges not checked; cysteine pairing not given here; UniProt P43145 94-143, looked up) [ADM, vasodilating peptide]
- additive effect between CGRP and ADM on adenylyl cyclase [5]: no additive effect
- adenylyl cyclase activity stimulation over basal [5]: 60-80 % over basal
- EC50 [5]: 4.3 nM
- activation of adenylyl cyclase activity over basal [5]: ~ 300 % over basal
- response of expressed receptor [11]: responds to ADM
- hypotension [12]: strong, long-lasting hypotension
- c-fos gene expression and AP-I DNA binding activity [13]: induces rapid and transient c-fos gene expression and AP-I DNA binding activity
- affinity of BECRLR, overall conclusion ([10]; based on radioligand binding and functional assays): higher affinity to ADM
- intracellular Ca++ ([14]; through the activation of phospholipase C): induces a rise in intracellular Ca^++
- accumulation of intracellular cAMP ([14]; vascular SMC, and bovine EC): stimulates the accumulation of intracellular cAMP
- NO-cGMP system (NO-cGMP system): activated the NO-cGMP system
- activation of adenylyl cyclase in vector transfected membranes [8]: did not respond
- insulin secretion and blood glucose metabolism [15]: down-regulate insulin secretion and blood glucose metabolism

Compound: rat ADM: rat adrenomedullin (YRQSMNQGSRSTGCRFGTCTMQKLAHQIYQFTDKDKDGMAPRNKISPQGY; ends and bridges not checked; cysteine pairing not given here; UniProt P43145 94-143, looked up)
- IC50 [3]: 2 to 4 nM
